Tests used:
Type in all cases: cell-based
[1] = tested on: collagen lattices seeded with normal human dermal fibroblasts (NHDFs); experiment: Collagen lattice retraction (area of collagen lattices seeded with NHDFs); details: for % relative to the control: lattice area relative to control without dressing
Description: The collagen lattices were obtained by seeding 0.8×10^6 normal human dermal fibroblasts (NHDFs) in a gel of collagen type I with a final concentration of 1.3 mg/ml.
A dressing (sold under the trade name Urgotul Start) comprising 7.5% of the potassium salt of sucrose octasulfate was applied to the surface of the collagen lattices.
A control series, without dressing, was carried out in order to evaluate the normal contraction of the collagen gel by the seeded NHDFs.
Likewise, a positive control was carried out by adding TGF-β at a concentration of 10 ng/ml in order to visualize the strong contraction induced by the NHDFs highly differentiated into myofibroblasts.
The incubation was maintained up to 7 days.
The effects of the potassium salt of sucrose octasulfate on the retraction of the collagen lattices was observed by means of photographic analysis (FIG. 2) and image analysis measurement of the area of the lattices once contracted.

[2] = tested on: normal human dermal fibroblasts (NHDFs); experiment: Differentiation of fibroblasts into myofibroblasts: α-SMA immunofluorescence and counting of differentiated cells; details: NHDF cultures, TGF-β 10 ng/ml, KSOS 2 mg/ml, 4 days of culture
Description: (§1) Cultures of normal human dermal fibroblasts (NHDFs) were prepared in DMEM/F12 culture medium (sold by the company Invitrogen) supplemented with 10% of fetal calf serum (sold by the company Invitrogen), with 5 μg/ml of insulin (sold by the company Promokine) and with 1 ng/ml of bFGF (sold by the company Promokine).
(§2) For this, the NHDF cultures were placed in a P100 dish coated with collagen at 5 μg/ml in DMEM/F12 medium supplemented with 10% of fetal calf serum and supplemented with 10 ng/ml of TGF-β(sold by the company Promocell), which is a growth factor that controls cell proliferation and differentiation (differentiated control in FIG. 1).
(§3) A nondifferentiated control was also prepared using cultures in DMEM/F12 supplemented with 10% calf serum without TGF-β.
(§4) The KSOS was added to the control and differentiated-control cultures to determine its effect on differentiation, in a proportion of 2 mg/ml.
(§5) The results were analyzed after 4 days of culture.
The cells were fixed with 4% formaldehyde and permeabilized with Triton. The immunolabeling is carried out using DAPI staining (which gives a blue color) for the cell nuclei, a rabbit anti-α-SMA antibody and an anti-rabbit secondary antibody coupled to Cys3 (sold by Promega).
The number of differentiated cells over the total number of cells is determined by cell counting. […]

[3] = tested on: α-SMA expression in normal human dermal fibroblasts (NHDFs); experiment: Inhibition of TGF-β-induced differentiation of fibroblasts into myofibroblasts: α-SMA expression by quantitative RT-PCR and Western blot; details: NHDF cultures, TGF-β 10 ng/ml, KSOS 2 mg/ml, D4
Description: as §1, §2, §3, §4, §5
For the measurement of the inhibitory effect of the compound according to the invention, KSOS was added at 2 mg/ml to the cultures undergoing differentiation. • By quantitative RT-PCR: the mRNA was extracted using the Trizol, chloroform and isopropanol method. • By the Western blot method: total cell extracts were prepared and a Western blot was carried out. […]

Molecule | contraction of the collagen lattices (in words) ([1]; between day 1 and day 7) | differentiation of fibroblasts into myofibroblasts (differentiated cells expressing α-SMA, immunofluorescence) [2] | α-SMA expression (mRNA by quantitative RT-PCR, protein by Western blot) [3] | Average of the areas ([1]; Day 1) [mm^2] | % relative to the control ([1]; Day 1) [%] | Average of the areas ([1]; Day 4) [mm^2] | % relative to the control ([1]; Day 4) [%] | Average of the areas ([1]; Day 7) [mm^2] | % relative to the control ([1]; Day 7) [%]
O=S(=O)([O-])OC[C@H]1O[C@@](COS(=O)(=O)[O-])(O[C@H]2O[C@H](COS(=O)(=O)[O-])[C@@H](OS(=O)(=O)[O-])[C@H](OS(=O)(=O)[O-])[C@H]2OS(=O)(=O)[O-])[C@@H](OS(=O)(=O)[O-])[C@@H]1OS(=O)(=O)[O-].[K+].[K+].[K+].[K+].[K+].[K+].[K+].[K+] [KSOS, potassium salt of sucrose octasulfate] | limits the contraction of the collagen lattices | inhibition of the differentiation | inhibition of this induction |  |  |  |  |  | 
TGF-β |  |  | induction of α-SMA expression | 217.3 | 95 | 145.9 | 76 | 97 | 56

— patent US9555053B2, “Use of oligosaccharide compounds for the prevention and treatment of pathological scars” (LABORATOIRES URGO, priority 2011, dated 2017)
